Patent US20050287192A1, “Wound bandage comprising a non-enzymatic antioxidant” (priority 2002, published 2005)
“Also recorded” adds a separate entry of the source.

What was measured:
Assay type in all cases: cell-based, human
leukocytes [1] = test: ability of leukocytes to kill bacteria in presence of additives in solution (CFU count); details: additive 10 mM in solution; leukocytes 1×10^5 cells/ml and Staphylococcus aureus 1×10^6 cells/ml, 37° C., two hours; FIG. 6
Description: The ability of leukocytes to kill bacteria in the presence of glutathione (10 mM) or N-acetylcysteine (10 mM) in solution was studied in the following manner: Leukocytes (1×10^5 cells/ml) and Staphylococcus aureus (1×10^6 cells/ml) were incubated together at 37° C. for two hours. The leukocytes were killed and the remaining bacteria were allowed to grow on a blood agar plate for 24 hours, after which the number of bacterial colonies (CFU) was calculated. Control samples without leukocytes were done in parallel with all the tests. A small number of colonies means that the leukocytes have good ability to kill bacteria.

leukocytes [2] = test: lipid peroxidation of leukocyte cell membranes measured with fluorescent probe DPPP; details: contact between leukocytes and treated cotton wool compress, DPPP fluorescence; FIG. 5
Description: Lipid peroxidation of cell membranes during the contact between leukocytes and cotton wool compresses was measured with a fluorescent probe, diphenyl-1-pyrenylphosphine (DPPP), which reacts with membrane peroxides and forms a fluorescent oxide, see Okimoto, Watanabe, et al., 2000 FEBS Letter, vol 474, pages 137-140.

leukocytes [3] = test: ability of leukocytes to be activated by zymosan after contact with cotton wool compresses; details: after contact with cotton wool compress with additive; FIG. 4
Description: The ability of the leukocytes to react against a microbial agent after contact with the cotton wool compresses was then tested by addition of zymosan, a fungal spore used to test the ability of the leukocytes to kill microbes.

leukocytes [4] = test: stress activation of leukocytes in contact with cotton wool compresses, release of reactive oxygen by luminol-enhanced chemiluminescence; details: cotton wool compress with physiological saline solution with glutathione, final concentration 0.05 mM, vs untreated compress; FIG. 3
Description: First of all leukocytes were isolated from human veinous blood and the cells were then left in contact with cotton wool compresses and stress activation of the cells was measured as the release of reactive oxygen with luminol-enhanced chemiluminiscense.
From FIG. 1 it is apparent that the leukocytes are activated on contact with cotton wool compresses.
The cellulose is then reduced again with cyanoborohydride.

CC(=O)N[C@@H](CS)C(=O)O [N-acetylcysteine]
ability of leukocytes to kill bacteria (number of bacterial colonies, CFU) (leukocytes [1]): kill the bacteria completely

N[C@@H](CCC(=O)N[C@@H](CS)C(=O)NCC(=O)O)C(=O)O [glutathione]
lipid peroxidation of the cell membrane (leukocytes [2]): reduce the lipid peroxidation of the cell membrane
ability of leukocytes to be activated by zymosan (leukocytes [3]): retain the ability to be activated by zymosan
activation of leukocytes (release of reactive oxygen) (leukocytes [4]): does not affect activation of the leukocytes; also recorded: somewhat increased quantity of reactive oxygen
ability of leukocytes to kill bacteria (number of bacterial colonies, CFU) (leukocytes [1]): kill the bacteria completely
